The source of these data is publication PMC2362731, “Phase I study of Carzelesin (U-80,244) given (4-weekly) by intravenous bolus schedule” (British Journal of Cancer, 1999).

A short description of the data set: Ex vivo conversion in blood samples. It counts as in vitro ADME, human. As to conditions: if the sample is not immediately cooled in ice-water. The source says: Carzelesin (U-80,244, Figure 1A) is a cyclopropylpyrroloindole (CPI) prodrug analogue of CC-1065. […] CPI drugs are a class of compounds with unique DNA interactive properties. These agents fit into the minor groove region of DNA, and the CPI function in the molecule mediates a covalent binding to the N3 position of adenine in A-T rich regions, thus forming DNA adducts in a sequence selective fashion (Hurley et al, 1984; Reynolds et al, 1985). Three new CPIs have now been developed. […] Bizelesin differs from the classical CPI drugs in that it contains two chloromethyl functions, which are both converted (via intramolecular rearrangements) to the CPI alkyl- ating species that interact with DNA. Consequently, this agent is capable of forming DNA interstrand cross-links (Lee et al, 1991). […] Therefore, efforts were directed to modu- late the alkylation rate by the preparation of CPI prodrugs that would require chemical or enzymatic conversion. The activation of Carzelesin is a two-step reaction with hydrolysis of the phenyl- urethane substituent to form the intermediate compound U-76,073, followed by ring closure to form the active product U-76,074 (Figure 1B). […] The concentration of U-76,074 (active metabolite) extended above the lower limit of quantitation (1 ng ml-1) for short periods of time and only at the higher dose levels. […]

Regarding `CCN(CC)c1ccc2cc(C(=O)Nc3ccc4[nH]c(C(=O)N5C[C@@H](CCl)c6c5cc(OC(=O)Nc5ccccc5)c5[nH]cc(C)c65)cc4c3)oc2c1` [Carzelesin], the “stability in blood sample ex vivo” value is reported as “readily converted to U-76,074 ex vivo”.
